Reference: patent US11236055B2 (Venenum Biodesign, LLC, priority 2016, dated 2022)
pEC50: −log10 of the molar value. Where a name gives a salt, the structure may show the parent alone.

Key:
human TGR5 receptor = target: T1, human TGR5 receptor (Homo sapiens, UniProt Q8TDU6); test: Human TGR5 cAMP production assay; type: cell-based; settings: human TGR5, luminescent cAMP assay; coded A-D; read-out: Human TGR5 Lum. cAMP Activity (EC50)
T1 construct: host or cells: CHO-K1 (hTGR5-CHO cells)
T1 sequence (Q8TDU6 1-330): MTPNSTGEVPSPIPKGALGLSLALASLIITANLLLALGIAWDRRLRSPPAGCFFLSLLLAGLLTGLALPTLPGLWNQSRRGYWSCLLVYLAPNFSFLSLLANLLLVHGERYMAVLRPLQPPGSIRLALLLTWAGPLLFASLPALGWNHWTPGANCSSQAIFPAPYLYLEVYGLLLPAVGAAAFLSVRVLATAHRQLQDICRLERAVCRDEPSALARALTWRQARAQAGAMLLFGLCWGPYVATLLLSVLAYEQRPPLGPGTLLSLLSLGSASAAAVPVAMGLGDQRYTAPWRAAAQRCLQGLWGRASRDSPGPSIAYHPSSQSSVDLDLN
Description: Human TGR5 cAMP Production Assay
We evaluated the Compounds of the present invention for their ability to induce cAMP production using CHO-K1 cells overexpressing the human TGR5 receptor. CHO-K1 cells stably expressing human TGR5 receptor (accession number NM_001077194.1 (hTGR5) (i.e., hTGR5-CHO cells) were purchased from DiscoveRx Corporation (Fremont, Calif.). hTGR5-CHO cells were grown in Ham's F-12 media supplemented with 10% Fetal Bovine Serum, 1% Penicillin-Streptomycin, 2 mM L-Alanine L-Glutamine (Glutamax), and 800 μg/mL Geneticin selection. The cAMP production assay was performed using DiscoveRx's cAMP XS+ kit (Catalog No. 90-0075XL) following the manufacturer's recommended protocol. Briefly, hTGR5-CHO cells were harvested using non-enzymatic cell dissociation buffer (Sigma-Aldrich, St. Louis, Mo.) and 1×10^6 cells were combined in Phosphate-Buffered Saline (PBS) to a final volume of 496 μL to which 4 μL of 125 mM IBMX (Sigma-Aldrich, St. Louis, Mo.) was added. 500 μL of cAMP antibody solution was added to the harvested cells and incubated at room temperature for 20 min.
Test compounds were serially diluted (half-log dilutions) in DMSO and then further diluted 1:50 in PBS, 10 mM HEPES buffer. 2 μL of serially diluted compound was added to a 384-well low volume plate (Greiner; cat #784075) and centrifuged briefly. 2 μL of the cell/cAMP antibody mixture was then added to each compound-containing well and allowed to incubate at room temperature for one hour. Following incubation, the XS+ kits' ED/Lysis/CL Substrate Working Solution was prepared following the manufacturer's recommended protocol and 4 μL was added to each well of the plate. The plate was then incubated for one hour at room temperature. Following incubation, 4 μL of Enzyme Acceptor reagent was added to the plate and allowed to incubate overnight at room temperature. Luminescent signal was then detected using the Viewlux instrument (Perkin-Elmer, Waltham, Mass.).
(§1) In Table 33, EC50 values for both human and mouse cells were determined according to the TGR5 cAMP assays described above.

mouse TGR5 receptor = target: T2, mouse TGR5 receptor (Mus musculus, UniProt Q80SS6); test: Mouse TGR5 cAMP production assay (HTRF, Cisbio cAMP HiRange); type: cell-based; settings: HEK293-EBNA cells overexpressing mouse TGR5, HTRF cAMP HiRange; coded A-D
T2 construct: expressed in transfected cells; host or cells: HEK293-EBNA (293 c18, ATCC CRL10852), Hygromycin B selection
T2 sequence (Q80SS6 1-329): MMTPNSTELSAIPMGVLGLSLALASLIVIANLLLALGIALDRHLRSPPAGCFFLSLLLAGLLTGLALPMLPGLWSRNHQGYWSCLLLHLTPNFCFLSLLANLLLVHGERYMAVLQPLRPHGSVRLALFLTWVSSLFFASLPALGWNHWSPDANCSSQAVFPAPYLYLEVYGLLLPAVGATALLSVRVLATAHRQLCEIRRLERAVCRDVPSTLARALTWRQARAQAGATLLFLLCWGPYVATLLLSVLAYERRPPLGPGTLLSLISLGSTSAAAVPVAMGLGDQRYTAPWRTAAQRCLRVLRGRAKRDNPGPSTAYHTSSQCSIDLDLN
Text: Mouse TGR5 cAMP Production Assay
We evaluated compounds of the present invention for their ability to induce cAMP production in HEK-EBNA cells overexpressing the mouse TGR5 receptor. Human embryonic kidney cells (HEK293-EBNA) stably expressing mouse TGR5 receptor were established using the following procedure. Specifically, a commercially-obtained gene encoding mouse TGR5 (accession number BC116914) from Thermo Scientific (Waltham, Mass.) was cloned into an episomal expression vector. The resulting expression plasmid was then transfected into 293 c18 (ATCC® CRL10852™) cells, which express the Epstein-Barr virus nuclear antigen EBNA1 and can support the replication of episomal vectors. Selection for the plasmid was maintained with Hygromycin B. Cells were cultured and maintained in DMEM (Sigma; cat #6429) supplemented with 10% Fetal Bovine Serum, 1% penicillin/streptomycin, 2 mM L-alanine L-glutamine (GlutaMax), and 250 μg/mL Hygromycin.
2. HTRF cAMP Production Assay
In this second cAMP production assay, the cAMP production was measured in 384-well low volume plates (Greiner; cat #784075) using the Cisbio™ cAMP HiRange HTRF Assay Kit (Cisbio) according to the manufacturer's protocol.
Briefly, compounds were initially diluted in 100% DMSO (12-point serial dilution by half logs) in a 96-well plate and then were further diluted 1:50 in PBS containing 10 mM HEPES. 5 μL were transferred to the 384-well assay plate in duplicate. HEK293-EBNA cells stably overexpressing mouse TGR5 were harvested using non-enzymatic cell dissociation buffer (Sigma), spun down, then resuspended in serum-free DMEM with 500 μM IBMX at a density of 500,000 cells/mL. 5 μL of cell suspension was transferred to each well of the 384-well assay plate already containing compound. The plate was covered and incubated at room temperature for 1 hour. The d2-cAMP and anti-cAMP Ab-cryptate stock solutions were prepared as per kit instructions. Then 5 μL of each conjugate (d2 and cryptate) were added to each well of the assay plate. The plate was covered and incubated at room temperature for 1 hour. The plate was read on an Envision™ plate reader (Perkin Elmer).
as §1

| Structure (SMILES) | pEC50 (human TGR5 receptor) | pEC50 (mouse TGR5 receptor) |
| --- | --- | --- |
| Cc1cnccc1-c1cccc([C@H](C)N(CCCC(=O)NCCS(=O)(=O)O)S(=O)(=O)c2ccccc2C(F)(F)F)c1 | > 7.00 | 6.00 to 7.00 |
| Cc1cnccc1-c1cccc([C@H](C)N(CCCCNc2c(NCCS(=O)(=O)O)c(=O)c2=O)S(=O)(=O)c2ccccc2C(F)(F)F)c1 | > 7.00 | 6.00 to 7.00 |
| CCc1cnccc1-c1cccc(C2CN(C(=O)[C@@H](N)CS(=O)(=O)O)CCN2S(=O)(=O)c2cccc(Cl)c2C)c1 (mixture of isomers) [Compound 48, (2R)-2-amino-3-(4-((3-chloro-2-methylphenyl)sulfonyl)-3-(3-(3-ethylpyridin-4-yl)phenyl)piperazin-1-yl)-3-oxopropane-1-sulfonic acid hydrochloride] | 6.00 to 7.00 | > 7.00 |
| COc1cnccc1-c1cccc(C(CO)NS(=O)(=O)c2cccc(C(F)(F)F)c2)c1 (racemic) [Compound 17, (+/−) N-(2-hydroxy-1-(3-(3-methoxypyridin-4-yl)phenyl)ethyl)-3-(trifluoromethyl)benzenesulfonamide] | 6.00 to 7.00 | 4.52 to 6.00 |
| Cc1cnccc1-c1cccc(C2CCCN2S(=O)(=O)c2ccccc2C(F)(F)F)c1 (racemic) [Compound 41, (+/−) 3-Methyl-4-(3-(1-((2-(trifluoromethyl)phenyl)sulfonyl)pyrrolidin-2-yl)phenyl)pyridine] | > 7.00 | 6.00 to 7.00 |
| Cc1cnccc1-c1cccc(C2CN(C(=O)OC(C)(C)C)CCN2S(=O)(=O)c2ccccc2C(F)(F)F)c1 (racemic) [Compound 42, (+/−) tert-butyl 3-(3-(3-methylpyridin-4-yl)phenyl)-4-((2-(trifluoromethyl)phenyl)sulfonyl)-piperazine-1-carboxylate] | 4.52 to 6.00 | 4.52 to 6.00 |
| CCc1cnccc1-c1cccc(C2CNCCN2S(=O)(=O)c2cccc(Cl)c2C)c1 (racemic) [Compound 43, (+/−) 1-((3-chloro-2-methylphenyl)sulfonyl)-2-(3-(3-ethylpyridin-4-yl)phenyl)piperazine hydrochloride] | > 7.00 | > 7.00 |
| Cc1cnccc1-c1cccc(C2CNCCN2S(=O)(=O)c2ccccc2C(F)(F)F)c1 (racemic) [Compound 44, (+/−) 2-(3-(3-methylpyridin-4-yl)phenyl)-1-((2-(trifluoromethyl)phenyl)sulfonyl)piperazine] | 6.00 to 7.00 | 6.00 to 7.00 |
| Cc1cnccc1-c1cccc([C@H]2C[C@@H](C(=O)O)CCN2S(=O)(=O)c2ccccc2C(F)(F)F)c1 (relative stereo) [Compound 55, cis-2-(3-(3-Methylpyridin-4-yl)phenyl)-1-((2-(trifluoromethyl)phenyl)sulfonyl)piperidine-4-carboxylic acid] | 6.00 to 7.00 | 6.00 to 7.00 |
| CC(C)(NS(=O)(=O)c1cccc(C(F)(F)F)c1)c1cccc(-c2ccncc2N)c1 [Compound 1AM] | > 7.00 | 6.00 to 7.00 |
| CC(C)(NS(=O)(=O)c1ccccc1C(F)(F)F)c1cccc(-c2ccnnc2)c1 [Compound 1BL] | 6.00 to 7.00 | 4.52 to 6.00 |
| Cc1c(Cl)cccc1S(=O)(=O)N[C@@H](C)c1cccc(-c2ccnnc2)c1 [Compound 1BP] | 6.00 to 7.00 | 4.52 to 6.00 |
| COc1cnccc1-c1cc(CNS(=O)(=O)c2cccc(C(F)(F)F)c2)ccn1 [Compound 1BS] | 4.52 to 6.00 | 4.52 to 6.00 |
| COc1cnccc1-c1ccnc(CNS(=O)(=O)c2ccccc2C(F)(F)F)c1 [Compound 1BT] | 4.52 to 6.00 | 4.52 to 6.00 |
| COc1cnccc1-c1cccc(C(NS(=O)(=O)c2ccccc2C(F)(F)F)c2ccccc2)c1 (stereo not drawn) [Compound 1CC] | 6.00 to 7.00 | 6.00 to 7.00 |
| CC[C@H](NS(=O)(=O)c1ccccc1C(F)(F)F)c1cccc(-c2ccncc2OC)c1 [Compound 1CD] | > 7.00 | 6.00 to 7.00 |
| COC(=O)C(NS(=O)(=O)c1cccc(C(F)(F)F)c1)c1cccc(-c2ccncc2OC)c1 (stereo not drawn) [Compound 1CE] | 4.52 to 6.00 | 4.52 to 6.00 |
| COc1cnccc1-c1cccc(CCNS(=O)(=O)c2ccccc2C(F)(F)F)c1 [Compound 1CF] | 6.00 to 7.00 | 4.52 to 6.00 |
| COc1cnccc1-c1cccc(C(C)(C)NS(=O)(=O)c2ccc(F)cc2C(F)(F)F)c1 [Compound 2BD] | > 7.00 | 6.00 to 7.00 |
| COc1cnccc1-c1cccc(C(C)(C)NS(=O)(=O)c2cc(Cl)ccc2Cl)c1 [Compound 2BE] | > 7.00 | 6.00 to 7.00 |
| COc1cnccc1-c1cccc(C(C)(C)NS(=O)(=O)c2ccc(Cl)cc2C(F)(F)F)c1 [Compound 2BF] | > 7.00 | 6.00 to 7.00 |
| COc1cnccc1-c1cccc(C(C)(C)NS(=O)(=O)c2ccc(Cl)cc2Cl)c1 [Compound 2BG] | > 7.00 | > 7.00 |
| COc1cnccc1-c1cccc(C(C)(C)NS(=O)(=O)c2cc(Cl)ccc2[N+](=O)[O-])c1 [Compound 2BH] | > 7.00 | > 7.00 |
| COc1cnccc1-c1cccc(C(C)(C)NS(=O)(=O)c2ccc(Cl)cc2[N+](=O)[O-])c1 [Compound 2BI] | > 7.00 | 6.00 to 7.00 |
| COc1cnccc1-c1cccc(C(C)(C)NS(=O)(=O)c2ccc(C(F)(F)F)cc2[N+](=O)[O-])c1 [Compound 2BJ] | > 7.00 | 4.52 to 6.00 |
| COc1cnccc1-c1cccc(C(C)(C)NS(=O)(=O)c2cc(C(F)(F)F)ccc2C(F)(F)F)c1 [Compound 2BK] | 6.00 to 7.00 | 4.52 to 6.00 |
| COc1cnccc1-c1cccc(C(C)(C)NS(=O)(=O)c2cccc(C(F)(F)F)c2C)c1 [Compound 2BM] | > 7.00 | 6.00 to 7.00 |
| COc1cnccc1-c1cccc(C(C)(C)NS(=O)(=O)c2ccc(C#N)cc2Cl)c1 [Compound 2BN] | 6.00 to 7.00 | 4.52 to 6.00 |
| Cc1cnccc1-c1cccc(C(C)(C)NS(=O)(=O)c2cccc(Cl)c2C)c1 [Compound 2BU] | > 7.00 | > 7.00 |
| Cc1cnccc1-c1cccc(C(C)(C)NS(=O)(=O)c2cccc(Cl)c2Cl)c1 [Compound 2BV] | > 7.00 | > 7.00 |
